Measured values taken from patent publication US8895578B2, “Carboxamide, sulfonamide and amine compounds and methods for using the same” (Rigel Pharmaceuticals, Inc., priority 2007, dated 2014).

Biological target: AMPK
Assay: AMPK activation, enzyme-linked immunosorbent assay
Format: biochemical
Conditions: Table 2, ELISA
Procedure: Compounds 1-54 were assayed for their ability to activate AMPK using an enzyme-linked immunosorbent assay.
Compounds 55-62 of Table 1 were assayed for their ability to activate AMPK using an enzyme-linked immunosorbent assay.
Compounds 63-66 of Table 1 were assayed for their ability to activate AMPK using an enzyme-linked immunosorbent assay.
Compounds 67-71 of Table 1 were assayed for their ability to activate AMPK using an enzyme-linked immunosorbent assay.
Compound 72 of Table 1 was assayed for its ability to activate AMPK using an enzyme-linked immunosorbent assay.

## N#Cc1ccc(CN2CCC(NC(=O)c3ccc4[nH]c5c(c4c3)CN(C(=O)OCc3ccccc3)CC5)CC2)cc1 [Compound 1, benzyl 8-(1-(4-cyanobenzyl)piperidin-4-ylcarbamoyl)-3,4-dihydro-1H-pyrido[4,3-b]indole-2(5H)-carboxylate]
  EC50: 1000 to 5000 nM

## O=C(NC1CCN(Cc2ccccc2)CC1)c1ccc2[nH]c3c(c2c1)CN(C(=O)OCc1ccccc1)CC3 [Compound 2, benzyl 8-(1-(4-benzyl)piperidin-4-ylcarbamoyl)-3,4-dihydro-1H-pyrido[4,3-b]indole-2(5H)-carboxylate]
  EC50: 10000 to 50000 nM

## CC(C)(C)OC(=O)N1CCC(NC(=O)c2ccc3[nH]c4c(c3c2)CN(C(=O)OCc2ccccc2)CC4)CC1 [Compound 3, benzyl 8-(1-(tert-butoxy-carbonyl)piperidin-4-ylcarbamoyl)-3,4-dihydro-1H-pyrido[4,3-b]indole-2(5H)-carboxylate]
  EC50: 10000 to 50000 nM

## N#Cc1ccc(CN2CCC(NC(=O)c3ccc4[nH]c5c(c4c3)CN(Cc3ccccc3)CC5)CC2)cc1 [Compound 4, 2-benzyl-N-(1-(4-cyano-benzyl)piperidin-4-yl)-2,3,4,5-tetrahydro-1H-pyrido[4,3-b]indole-8-carboxamide]
  EC50: 1000 to 5000 nM

## O=C(NC1CCN(Cc2ccc(C(F)(F)F)cc2)CC1)c1ccc2[nH]c3c(c2c1)CN(Cc1ccccc1)CC3 [Compound 5, 2-benzyl-N-(1-(4-trifluoromethylbenzyl)piperidin-4-yl)-2,3,4,5-tetrahydro-1H-pyrido [4,3-b]indole-8-carboxamide]
  EC50: 1000 to 5000 nM

## CC(C)(C)OC(=O)N1CCC(NC(=O)c2ccc3[nH]c4c(c3c2)CN(Cc2ccc(C(F)(F)F)cc2)CC4)CC1 [Compound 6, tert-butyl 4-(2-(4-(trifluoromethyl)benzyl)-2,3,4,5-tetrahydro-1H-pyrido[4,3-b]indole-8-carboxamido)piperidine-1-carboxylate]
  EC50: 500 to 1000 nM

## O=C(NC1CCN(Cc2ccncc2)CC1)c1ccc2[nH]c3c(c2c1)CN(Cc1ccccc1)CC3 [Compound 7, 2-benzyl-N-(1-(pyridin-4-ylmethyl)piperidin-4-yl)-2,3,4,5-tetrahydro-1H-pyrido[4,3-b]indole-8-carboxamide]
  EC50: 5000 to 10000 nM

## O=C(NC1CCN(Cc2cccnc2)CC1)c1ccc2[nH]c3c(c2c1)CN(Cc1ccc(F)cc1)CC3 [Compound 8, 2-(4-fluorobenzyl)-N-(1-(pyridin-3-ylmethyl)piperidin-4-yl)-2,3,4,5-tetrahydro-1H-pyrido [4,3-b]indole-8-carboxamide]
  EC50: 5000 to 10000 nM

## N#Cc1ccc(CN2CCC(NC(=O)c3ccc4[nH]c5c(c4c3)CN(Cc3ccc(F)cc3)CC5)CC2)cc1 [Compound 9, N-(1-(4-cyanobenzyl)piperidin-4-yl)-2-(4-fluorobenzyl)-2,3,4,5-tetrahydro-1H-pyrido [4,3-b]indole-8-carboxamide]
  EC50: < 500 nM

## O=C(NC1CCN(Cc2ccc(C(F)(F)F)cc2)CC1)c1ccc2[nH]c3c(c2c1)CN(Cc1ccc(F)cc1)CC3 [Compound 10, N-(1-(4-trifluoromethyl-benzyl)piperidin-4-yl)-2-(4-fluorobenzyl)-2,3,4,5-tetrahydro-1H-pyrido[4,3-b]indole-8-carboxamide]
  EC50: 500 to 1000 nM

## O=C(NC1CCN(Cc2cccnc2)CC1)c1ccc2[nH]c3c(c2c1)CN(Cc1ccc(C(F)(F)F)cc1)CC3 [Compound 11, N-(1-(pyridin-3-ylmethyl)piperidin-4-yl)-2-(4-(trifluoromethyl)benzyl)-2,3,4,5-tetrahydro-1H-pyrido[4,3-b]indole-8-carboxamide]
  EC50: < 500 nM

## N#Cc1ccc(CN2CCC(NC(=O)c3ccc4[nH]c5c(c4c3)CN(Cc3ccc(C(F)(F)F)cc3)CC5)CC2)cc1 [Compound 12, N-(1-(4-cyanobenzyl)piperidin-4-yl)-2-(4-(trifluoromethyl)benzyl)-2,3,4,5-tetrahydro-1H-pyrido[4,3-b]indole-8-carboxamide]
  EC50: < 500 nM

## O=C(NC1CCN(Cc2ccc(C(F)(F)F)cc2)CC1)c1ccc2[nH]c3c(c2c1)CN(Cc1ccc(C(F)(F)F)cc1)CC3 [Compound 13, N-(1-(4-trifluoromethyl-benzyl)piperidin-4-yl)-2-(4-(trifluoromethyl)benzyl)-2,3,4,5-tetrahydro-1H-pyrido[4,3-b]indole-8-carboxamide]
  EC50: < 500 nM

## O=C(NC1CCN(CCc2ccccc2)CC1)c1ccc2[nH]c3c(c2c1)CN(Cc1ccc(C(F)(F)F)cc1)CC3 [Compound 14, N-(1-phenethyl-piperidin-4-yl)-2-(4-(trifluoromethyl)benzyl)-2,3,4,5-tetrahydro-1H-pyrido[4,3-b]indole-8-carboxamide]
  EC50: < 500 nM

## O=C(NC1CCN(c2ccc(F)cc2)CC1)c1ccc2[nH]c3c(c2c1)CN(Cc1ccc(C(F)(F)F)cc1)CC3 [Compound 15, N-(1-(4-fluorophenyl)piperidin-4-yl)-2-(4-(trifluoromethyl)benzyl)-2,3,4,5-tetrahydro-1H-pyrido[4,3-b]indole-8-carboxamide]
  EC50: < 500 nM

## Cn1c2c(c3cc(C(=O)NC4CCN(Cc5ccc(C#N)cc5)CC4)ccc31)CN(Cc1ccc(C(F)(F)F)cc1)CC2 [Compound 16, N-(1-(4-cyanobenzyl)piperidin-4-yl)-5-methyl-2-(4-(trifluoromethyl)benzyl)-2,3,4,5-tetrahydro-1H-pyrido[4,3-b]indole-8-carboxamide]
  EC50: < 500 nM

## Cn1c2c(c3cc(C(=O)NC4CCN(Cc5ccc(C(F)(F)F)cc5)CC4)ccc31)CN(Cc1ccc(C(F)(F)F)cc1)CC2 [Compound 17, N-(1-(4-trifluoromethyl-benzyl)piperidin-4-yl)-5-methyl-2-(4-(trifluoro-methyl)benzyl)-2,3,4,5-tetrahydro-1H-pyrido [4,3-b]indole-8-carboxamide]
  EC50: 500 to 1000 nM

## Cn1c2c(c3cc(C(=O)NC4CCN(Cc5cccnc5)CC4)ccc31)CN(Cc1ccc(C(F)(F)F)cc1)CC2 [Compound 18, 5-methyl-N-(1-(pyridin-3-ylmethyl)piperidin-4-yl)-2-(4-(trifluoromethyl)benzyl)-2,3,4,5-tetrahydro-1H-pyrido[4,3-b]indole-8-carboxamide]
  EC50: 1000 to 5000 nM

## O=C(NC1CCN(Cc2ccccc2)CC1)c1ccc2[nH]c3c(c2c1)CN(S(=O)(=O)c1ccc(C(F)(F)F)cc1)CC3 [Compound 19, N-(1-benzylpiperidin-4-yl)-2-(4-(trifluoromethyl)phenylsulfonyl)-2,3,4,5-tetrahydro-1H-pyrido [4,3-b]indole-8-carboxamide]
  EC50: > 100000 nM

## CC(=O)n1c2c(c3cc(C(=O)NC4CCN(Cc5cccnc5)CC4)ccc31)CN(Cc1ccc(C(F)(F)F)cc1)CC2 [Compound 20, 5-acetyl-N-(1-(pyridin-3-ylmethyl)piperidin-4-yl)-2-(4-(trifluoromethyl)benzyl)-2,3,4,5-tetrahydro-1H-pyrido[4,3-b]indole-8-carboxamide]
  EC50: 1000 to 5000 nM

## N#Cc1ccc(S(=O)(=O)N2CCC(NC(=O)c3ccc4[nH]c5c(c4c3)CN(Cc3ccc(C(F)(F)F)cc3)CC5)CC2)cc1 [Compound 21, N-(1-(4-cyanophenyl-sulfonyl)piperidin-4-yl)-2-(4-(trifluoromethyl)benzyl)-2,3,4,5-tetrahydro-1H-pyrido[4,3-b]indole-8-carboxamide]
  EC50: 500 to 1000 nM

## O=C(NC1CCN(S(=O)(=O)c2cccnc2)CC1)c1ccc2[nH]c3c(c2c1)CN(Cc1ccc(C(F)(F)F)cc1)CC3 [Compound 22]
  EC50: 500 to 1000 nM

## O=C(NC1CCN(S(=O)(=O)c2ccc(C(F)(F)F)cc2)CC1)c1ccc2[nH]c3c(c2c1)CN(Cc1ccc(C(F)(F)F)cc1)CC3 [Compound 23, 2-(4-(trifluoromethyl)benzyl)-N-(1-(4-(trifluoro-methyl)phenylsulfonyl)piperidin-4-yl)-2,3,4,5-tetrahydro-1H-pyrido[4,3-b]indole-8-carboxamide]
  EC50: 1000 to 5000 nM

## N#Cc1ccc(CN2CCC(NC(=O)c3ccc4[nH]c5c(c4c3)CN(S(=O)(=O)c3ccc(C(F)(F)F)cc3)CC5)CC2)cc1 [Compound 24, N-(1-(4-cyanobenzyl)piperidin-4-yl)-2-(4-(trifluoromethyl)phenyl-sulfonyl)-2,3,4,5-tetrahydro-1H-pyrido[4,3-b]indole-8-carboxamide]
  EC50: 1000 to 5000 nM

## N#Cc1ccc(CN2CCC(NC(=O)c3ccc4[nH]c5c(c4c3)CN(S(=O)(=O)c3ccc(C#N)cc3)CC5)CC2)cc1 [Compound 25, N-(1-(4-cyanobenzyl)piperidin-4-yl)-2-(4-cyanophenylsulfonyl)-2,3,4,5-tetrahydro-1H-pyrido[4,3-b]indole-8-carboxamide]
  EC50: 10000 to 50000 nM

## N#Cc1ccc(CN2CCC(NC(=O)c3ccc4[nH]c5c(c4c3)CN(S(=O)(=O)c3cccnc3)CC5)CC2)cc1 [Compound 26, N-(1-(4-cyanobenzyl)piperidin-4-yl)-2-(pyridin-3-ylsulfonyl)-2,3,4,5-tetrahydro-1H-pyrido [4,3-b]indole-8-carboxamide]
  EC50: 10000 to 50000 nM

## N#Cc1ccc(NC(=O)N2CCC(NC(=O)c3ccc4[nH]c5c(c4c3)CN(Cc3ccc(C(F)(F)F)cc3)CC5)CC2)cc1 [Compound 27, N-(1-(4-cyanophenyl-carbamoyl)piperidin-4-yl)-2-(4-(trifluoro-methyl)benzyl)-2,3,4,5-tetrahydro-1H-pyrido [4,3-b]indole-8-carboxamide]
  EC50: 1000 to 5000 nM

## O=C(NC1CCN(S(=O)(=O)c2ccc(F)cc2)CC1)c1ccc2[nH]c3c(c2c1)CN(Cc1ccc(C(F)(F)F)cc1)CC3 [Compound 28, N-(1-(4-fluorophenyl-sulfonyl)piperidin-4-yl)-2-(4-(trifluoromethyl)benzyl)-2,3,4,5-tetrahydro-1H-pyrido[4,3-b]indole-8-carboxamide]
  EC50: 1000 to 5000 nM

## N#Cc1cccc(S(=O)(=O)N2CCC(NC(=O)c3ccc4[nH]c5c(c4c3)CN(Cc3ccc(C(F)(F)F)cc3)CC5)CC2)c1 [Compound 29, N-(1-(3-cyanophenyl-sulfonyl)piperidin-4-yl)-2-(4-(trifluoromethyl)benzyl)-2,3,4,5-tetrahydro-1H-pyrido[4,3-b]indole-8-carboxamide]
  EC50: 1000 to 5000 nM
